Numbers after ± are expanded uncertainties.
How the values were obtained:
[1] = 308.15 K, 101.33 kPa, Liquid; for speed of sound: Sing-around technique in a fixed-path interferometer; for mass density: Vibrating tube method
[2] = xn = mol fraction of the nth substance listed; details: 308.15 K, 101 kPa, Liquid; for excess molar volume: Direct dilatometry; for speed of sound: Sing-around technique in a fixed-path interferometer

OCCO [1,2-ethanediol]
[1]
Details	speed of sound [m/s]	viscosity [mPa·s]
–	1633.4 ± 1.1	11.35 ± 0.23

OCCCCCO [1,5-pentanediol]
[1]
Details	mass density [kg/m3]	speed of sound [m/s]	viscosity [mPa·s]
–	974.3 ± 4.2	1566.1 ± 4.1	64 ± 2.2

OCCCCCO [1,5-pentanediol] + O=C1CCCN1
[2]
Details	excess molar volume [m3/mol]	speed of sound [m/s]	viscosity [mPa·s]
x1 = 0.0022	1e-09 ± 5e-09	–	–
x1 = 0.009	3e-09 ± 5e-09	–	–
x1 = 0.0129	5e-09 ± 5e-09	–	–
x1 = 0.0168	6e-09 ± 5e-09	–	–
x1 = 0.0269	1e-08 ± 5e-09	–	–
x1 = 0.0298	–	1597.5 ± 1.4	9.401 ± 0.18
x1 = 0.0326	1.5e-08 ± 5e-09	–	–
x1 = 0.0454	1.7e-08 ± 5e-09	–	–
x1 = 0.0514	–	1595.7 ± 1.5	9.774 ± 0.19
x1 = 0.0619	2.7e-08 ± 5e-09	–	–
x1 = 0.0915	3.4e-08 ± 5e-09	–	–
x1 = 0.1017	–	1591.8 ± 1.6	10.74 ± 0.21
x1 = 0.1149	4e-08 ± 5e-09	–	–
x1 = 0.1375	4.4e-08 ± 5e-09	–	–
x1 = 0.1536	–	1588.7 ± 1.7	11.8 ± 0.23
x1 = 0.1895	5.2e-08 ± 5e-09	–	–
x1 = 0.2008	–	1586.9 ± 1.9	12.89 ± 0.25
x1 = 0.2539	5.9e-08 ± 5e-09	–	–
x1 = 0.293	6.4e-08 ± 5e-09	–	–
x1 = 0.2942	–	1583.5 ± 2.1	15.32 ± 0.3
x1 = 0.3268	6.7e-08 ± 5e-09	–	–
x1 = 0.3769	7e-08 ± 5e-09	–	–
x1 = 0.3886	–	1580.9 ± 2.4	18.07 ± 0.37
x1 = 0.4209	7e-08 ± 5e-09	–	–
x1 = 0.4564	7.1e-08 ± 5e-09	–	–
x1 = 0.479	–	1578.8 ± 2.6	21.15 ± 0.44
x1 = 0.5091	7e-08 ± 5e-09	–	–
x1 = 0.5407	6.9e-08 ± 5e-09	–	–
x1 = 0.5779	6.6e-08 ± 5e-09	–	–
x1 = 0.582	–	1577.1 ± 2.9	24.71 ± 0.54
x1 = 0.601	6.1e-08 ± 5e-09	–	–
x1 = 0.6363	5.6e-08 ± 5e-09	–	–
x1 = 0.6673	5.3e-08 ± 5e-09	–	–
x1 = 0.6827	–	1575.3 ± 3.2	29.13 ± 0.66
x1 = 0.7035	4.7e-08 ± 5e-09	–	–
x1 = 0.7347	4.2e-08 ± 5e-09	–	–
x1 = 0.7812	–	1573 ± 3.5	36.21 ± 0.85
x1 = 0.7879	3.3e-08 ± 5e-09	–	–
x1 = 0.822	2.8e-08 ± 5e-09	–	–
x1 = 0.8319	–	1571.6 ± 3.6	41.2 ± 0.99
x1 = 0.8461	2.6e-08 ± 5e-09	–	–
x1 = 0.8694	2.3e-08 ± 5e-09	–	–
x1 = 0.8947	1.8e-08 ± 5e-09	–	–
x1 = 0.9095	–	1569.4 ± 3.8	50.56 ± 0.95
x1 = 0.9143	1.3e-08 ± 5e-09	–	–
x1 = 0.9392	–	1568.6 ± 3.9	54.65 ± 1.1
x1 = 0.9428	1.1e-08 ± 5e-09	–	–
x1 = 0.9583	7e-09 ± 5e-09	–	–
x1 = 0.9749	–	1567.3 ± 4	59.95 ± 1.4
x1 = 0.9783	3e-09 ± 5e-09	–	–

O=C1CCCN1 [2-pyrrolidinone]
[1]
Details	mass density [kg/m3]	speed of sound [m/s]	viscosity [mPa·s]
–	1097.14 ± 0.4	1600 ± 1.4	8.922 ± 0.19

OCCCO [propan-1,3-diol]
[1]
Details	mass density [kg/m3]	speed of sound [m/s]	viscosity [mPa·s]
–	1042.7 ± 0.34	1604.5 ± 1.4	26.44 ± 0.59
